These results are taken from patent US20260092071A1, “COMPOUNDS AND COMPOSITIONS AS SMARCA2/4 DEGRADERS AND USES THEREOF” (REGENTS OF THE UNIVERSITY OF MICHIGAN, priority 2022, published 2026).

The structures appear in SMILES notation. Read-outs that look alike come from different tables or passages of the source. Bounds are passed on as bounds.

One test concerns the target SMARCA4 (Homo sapiens, UniProt P51532). Kind of test: HiBiT assay for protein degradation, Hela SMARCA4-HiBiT cells (A series). The note with it: for DC50: read-out: SMARC A4 Hela HiBit DC50. Further details: fuse HiBiT to the carboxy terminus of SMARCA2 (Promega CS302365) or SMARCA4 (Promega CS3023225); host or cells: HeLa (CRISPR/Cas9 HiBiT knock-in). Type of test: cell-based. A digest of the protocol: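 SMARCA4 degradation was measured in HeLa cells in which HiBiT had been knocked into the SMARCA4 carboxy terminus via CRISPR/Cas9 (Promega CS3023225). Cells were maintained in DMEM with FBS and penicillin-streptomycin. At the end of treatment, SMARCA4 levels were read by lytic HiBiT luminescence (Nano-Glo®, Promega N3050), and data were analyzed with GraphPad Prism.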
(In general: HiBiT is a short tag that completes a luciferase, so light tracks the accessible tagged protein.)

A further test addresses SMARCA2 (Homo sapiens, UniProt P51531). Kind of test: HiBiT assay for protein degradation, Hela SMARCA2-HiBiT cells (A series). Type of test: cell-based. Further details: Hela cells were genetically modified via CRISPR/Cas9 to fuse HiBiT to the carboxy terminus of SMARCA2; host or cells: HeLa (CRISPR/Cas9 HiBiT knock-in). A digest of the protocol:
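SMARCA2 degradation was measured in HeLa cells whose endogenous SMARCA2 carries a carboxy-terminal HiBiT tag introduced by CRISPR/Cas9 (Promega CS302365). Cells were maintained in DMEM with FBS and penicillin-streptomycin. SMARCA2 levels were read at the end of the experiment by Nano-Glo® HiBiT lytic luminescence (Promega N3050) and analyzed in GraphPad Prism.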

Setting [1] is: Hela SMARCA4-HiBiT cells, 24 hours treatment.
The mark [2] stands for this setting: Hela SMARCA4-HiBiT cells, 24 hours treatment, read-out: SMARC A4 Hela HiBit Dmax.
The mark [3] stands for this setting: Hela SMARCA2-HiBiT cells, 24 hours treatment; read-out: SMARC A2 Hela HiBit DC50.
[4] abbreviates: Hela SMARCA2-HiBiT cells, 24 hours treatment; read-out: SMARC A2 Hela HiBit Dmax (%).
Where [5] appears, read: Hela SMARCA2-HiBiT cells, 24 hours treatment.
[6] abbreviates: read-out: SMARC A2 Hela HiBit DC50.

Sequence of SMARCA2 (P51531 whole entry): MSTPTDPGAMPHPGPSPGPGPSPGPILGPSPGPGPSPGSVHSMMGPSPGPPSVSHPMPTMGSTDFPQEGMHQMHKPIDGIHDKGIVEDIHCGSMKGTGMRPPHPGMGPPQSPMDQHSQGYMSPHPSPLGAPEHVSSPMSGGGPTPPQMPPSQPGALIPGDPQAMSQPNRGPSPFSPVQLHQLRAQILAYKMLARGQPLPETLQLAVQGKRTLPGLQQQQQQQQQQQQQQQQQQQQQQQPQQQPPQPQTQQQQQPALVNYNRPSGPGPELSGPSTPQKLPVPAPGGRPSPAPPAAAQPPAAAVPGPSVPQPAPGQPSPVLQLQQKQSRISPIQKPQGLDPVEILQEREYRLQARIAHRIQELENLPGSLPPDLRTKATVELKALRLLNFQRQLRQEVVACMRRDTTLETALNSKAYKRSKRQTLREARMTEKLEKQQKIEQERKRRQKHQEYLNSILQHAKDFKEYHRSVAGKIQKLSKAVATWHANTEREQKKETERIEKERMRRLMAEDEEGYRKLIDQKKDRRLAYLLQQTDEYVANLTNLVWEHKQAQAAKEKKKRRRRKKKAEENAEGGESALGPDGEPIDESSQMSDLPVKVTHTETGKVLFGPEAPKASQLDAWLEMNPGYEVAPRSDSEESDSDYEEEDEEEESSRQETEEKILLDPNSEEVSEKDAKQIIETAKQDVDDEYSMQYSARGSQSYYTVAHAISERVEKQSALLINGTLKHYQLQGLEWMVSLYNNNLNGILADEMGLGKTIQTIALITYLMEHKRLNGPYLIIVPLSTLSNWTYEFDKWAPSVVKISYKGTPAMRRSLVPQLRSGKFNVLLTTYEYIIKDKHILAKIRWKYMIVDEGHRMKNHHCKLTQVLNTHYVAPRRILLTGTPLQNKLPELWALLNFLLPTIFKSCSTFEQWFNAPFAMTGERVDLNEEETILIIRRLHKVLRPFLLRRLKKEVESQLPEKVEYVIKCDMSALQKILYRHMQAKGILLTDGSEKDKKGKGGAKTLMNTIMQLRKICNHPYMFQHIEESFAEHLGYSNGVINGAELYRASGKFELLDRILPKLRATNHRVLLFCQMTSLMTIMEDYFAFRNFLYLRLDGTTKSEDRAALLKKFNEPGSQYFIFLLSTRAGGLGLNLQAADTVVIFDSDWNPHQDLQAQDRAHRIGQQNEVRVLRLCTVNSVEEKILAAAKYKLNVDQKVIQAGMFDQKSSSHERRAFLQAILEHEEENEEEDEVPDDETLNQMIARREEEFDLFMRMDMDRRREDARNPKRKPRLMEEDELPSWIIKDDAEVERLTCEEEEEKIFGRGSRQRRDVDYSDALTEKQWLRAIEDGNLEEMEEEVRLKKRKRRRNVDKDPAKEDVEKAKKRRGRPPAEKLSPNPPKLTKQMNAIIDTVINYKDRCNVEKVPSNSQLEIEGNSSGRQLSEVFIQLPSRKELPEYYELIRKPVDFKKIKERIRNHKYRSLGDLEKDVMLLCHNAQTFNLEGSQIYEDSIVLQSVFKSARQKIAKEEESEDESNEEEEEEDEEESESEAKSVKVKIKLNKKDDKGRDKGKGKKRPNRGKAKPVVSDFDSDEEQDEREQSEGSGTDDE
Sequence of SMARCA4 (P51532 whole entry): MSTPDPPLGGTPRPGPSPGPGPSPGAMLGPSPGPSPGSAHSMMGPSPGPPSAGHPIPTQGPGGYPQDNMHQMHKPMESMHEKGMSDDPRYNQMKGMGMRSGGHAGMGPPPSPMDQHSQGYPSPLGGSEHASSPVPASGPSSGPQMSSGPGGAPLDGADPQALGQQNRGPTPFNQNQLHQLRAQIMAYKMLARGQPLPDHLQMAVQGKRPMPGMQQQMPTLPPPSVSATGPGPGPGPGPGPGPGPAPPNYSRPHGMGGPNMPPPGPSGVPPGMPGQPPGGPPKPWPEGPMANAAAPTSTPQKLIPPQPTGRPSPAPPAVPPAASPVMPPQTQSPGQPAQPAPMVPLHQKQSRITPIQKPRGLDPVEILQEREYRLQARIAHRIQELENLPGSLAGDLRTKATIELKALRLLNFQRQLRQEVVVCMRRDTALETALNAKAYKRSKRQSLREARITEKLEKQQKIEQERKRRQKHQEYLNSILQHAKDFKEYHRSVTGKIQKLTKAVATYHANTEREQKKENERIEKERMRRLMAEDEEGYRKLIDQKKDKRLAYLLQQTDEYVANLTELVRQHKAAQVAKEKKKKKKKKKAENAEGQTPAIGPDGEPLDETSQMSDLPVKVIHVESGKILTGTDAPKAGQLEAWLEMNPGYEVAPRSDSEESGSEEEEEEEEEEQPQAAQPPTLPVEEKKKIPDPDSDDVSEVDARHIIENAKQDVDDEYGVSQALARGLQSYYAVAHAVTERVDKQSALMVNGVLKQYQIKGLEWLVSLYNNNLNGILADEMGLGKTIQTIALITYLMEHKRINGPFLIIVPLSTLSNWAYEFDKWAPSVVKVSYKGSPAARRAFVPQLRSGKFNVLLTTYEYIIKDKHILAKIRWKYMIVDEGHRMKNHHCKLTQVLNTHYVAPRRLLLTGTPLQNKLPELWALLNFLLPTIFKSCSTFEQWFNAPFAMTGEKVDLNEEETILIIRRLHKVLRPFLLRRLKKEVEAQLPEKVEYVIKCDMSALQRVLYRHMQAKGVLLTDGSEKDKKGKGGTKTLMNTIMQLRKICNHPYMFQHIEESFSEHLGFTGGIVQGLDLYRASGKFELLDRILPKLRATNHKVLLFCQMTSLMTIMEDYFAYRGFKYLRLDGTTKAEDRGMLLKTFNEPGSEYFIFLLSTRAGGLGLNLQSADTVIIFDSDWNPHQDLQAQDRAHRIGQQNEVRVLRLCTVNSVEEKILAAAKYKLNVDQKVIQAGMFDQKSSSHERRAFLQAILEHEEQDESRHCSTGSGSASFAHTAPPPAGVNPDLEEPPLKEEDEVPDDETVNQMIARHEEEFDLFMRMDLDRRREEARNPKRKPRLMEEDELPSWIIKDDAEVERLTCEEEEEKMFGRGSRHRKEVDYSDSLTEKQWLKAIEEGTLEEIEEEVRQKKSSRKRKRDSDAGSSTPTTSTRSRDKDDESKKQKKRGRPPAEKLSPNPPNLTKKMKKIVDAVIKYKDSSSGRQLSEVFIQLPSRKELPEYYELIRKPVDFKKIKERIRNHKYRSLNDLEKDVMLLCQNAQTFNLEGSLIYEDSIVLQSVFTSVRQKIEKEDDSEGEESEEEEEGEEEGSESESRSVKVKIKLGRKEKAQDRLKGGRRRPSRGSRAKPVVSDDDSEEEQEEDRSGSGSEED

With `Cc1ncsc1-c1ccc([C@H](C)NC(=O)[C@@H]2C[C@@H](O)CN2C(=O)[C@H](C2CCCCC2)n2cc([C@H]3CC[C@H](CN4CCC(c5ccc6c(c5)-n5c(nc(=O)c7c(Cl)cccc75)C65CCCCC5)CC4)CC3)nn2)cc1` [Compound A118, (2S,4R)-1-((S)-2-(4-((1r,4S)-4-((4-(4′-chloro-5′-oxo-5′H-spiro[cyclohexane-1,7′-indolo[1,2-a]quinazolin]-10′-yl)piperidin-1-yl)methyl)cyclohexyl)-1H-1,2,3-triazol-1-yl)-2-cyclohexylacetyl)-4-hydroxy-N—((S)-1-(4-(4-methylthiazol-5-yl)phenyl)ethyl)pyrrolidine-2-carboxamide], the DC50 was 100 to 1000 nM on SMARCA4 (setting [1]) and < 10 nM on SMARCA2 (setting [3]). The Dmax on SMARCA4 (setting [2]) is 50 to 69%; at SMARCA2 (setting [4]), > 90%.
For `Cc1ncsc1-c1ccc([C@@H](NC(=O)[C@@H]2C[C@@H](O)CN2C(=O)[C@@H](n2cc(C3CC3)nn2)C(C)(C)C)C(=O)N2CCC3(CCC(CN4CCC(c5ccc6c(c5)-n5c(nc(=O)c7c(Br)cccc75)C65CCCCC5)CC4)CC3)CC2)cc1` [Compound A137, (2S,4R)—N—((R)-2-(9-((4-(4′-bromo-5′-oxo-5′H-spiro[cyclohexane-1,7′-indolo[1,2-a]quinazolin]-10′-yl)piperidin-1-yl)methyl)-3-azaspiro[5.5]undecan-3-yl)-1-(4-(4-methylthiazol-5-yl)phenyl)-2-oxoethyl)-1-((S)-2-(4-cyclopropyl-1H-1,2,3-triazol-1-yl)-3,3-dimethylbutanoyl)-4-hydroxypyrrolidine-2-carboxamide], the DC50 at SMARCA4 (setting [1]) and on SMARCA2 (setting [3]) was < 10 nM throughout. Besides, the Dmax on SMARCA4 (setting [2]) is 70 to 90%; on SMARCA2 (setting [4]), > 90%.
As for `Cc1ncsc1-c1ccc([C@H](CN2CCOCC2)NC(=O)[C@@H]2C[C@@H](O)CN2C(=O)[C@H](C(C)C)n2cc([C@H]3CC[C@H](CN4CCC(c5ccc6c(c5)-n5c(nc(=O)c7c(Cl)cccc75)C6(C)C)CC4)CC3)nn2)cc1` [Compound A104, (2S,4R)-1-((S)-2-(4-((1r,4S)-4-((4-(4-chloro-7,7-dimethyl-5-oxo-5,7-dihydroindolo[1,2-a]quinazolin-10-yl)piperidin-1-yl)methyl)cyclohexyl)-1H-1,2,3-triazol-1-yl)-3-methylbutanoyl)-4-hydroxy-N-((R)-1-(4-(4-methylthiazol-5-yl)phenyl)-2-morpholinoethyl)pyrrolidine-2-carboxamide], the DC50 at SMARCA4 (setting [1]) is > 1000 nM; at SMARCA2 (setting [3]), < 10 nM. Moreover, the Dmax at SMARCA4 (setting [2]) is 50 to 69%; on SMARCA2 (setting [4]) it was > 90%.
Turning to `CC(C)(C)[C@@H](C(=O)N1C[C@H](O)C[C@H]1C(=O)N[C@@H](CN1CCOCC1)c1ccc(-c2ccccc2F)cc1)n1cc([C@H]2CC[C@H](CN3CCC(c4ccc5c(c4)-n4c(nc(=O)c6c(Cl)cccc64)C54CCCCC4)CC3)CC2)nn1` [Compound A164, (2S,4R)-1-((S)-2-(4-((1r,4S)-4-((4-(4′-chloro-5′-oxo-5′H-spiro[cyclohexane-1,7′-indolo[1,2-a]quinazolin]-10′-yl)piperidin-1-yl)methyl)cyclohexyl)-1H-1,2,3-triazol-1-yl)-3,3-dimethylbutanoyl)-N—((R)-1-(2′-fluoro-[1,1′-biphenyl]-4-yl)-2-morpholinoethyl)-4-hydroxypyrrolidine-2-carboxamide], the 50% degradation concentration (DC50) on SMARCA4 (setting [1]) is 100 to 1000 nM; on SMARCA2 (setting [3]), < 10 nM. The Dmax was 50 to 69% at SMARCA4 (setting [2]) and > 90% at SMARCA2 (setting [4]).
Consider `Cc1ncsc1-c1ccc([C@H](CN2CCOCC2)NC(=O)[C@@H]2C[C@@H](O)CN2C(=O)[C@@H](NC(=O)C23CCC(CN4CCC(c5ccc6c(c5)-n5c(nc(=O)c7c(Br)cccc75)C65CCCCC5)CC4)(CC2)C3)C(C)(C)C)cc1` [Compound A24, (2S,4R)-1-((S)-2-(4-((4-(4′-bromo-5′-oxo-5′H-spiro[cyclohexane-1,7′-indolo[1,2-a]quinazolin]-10′-yl)piperidin-1-yl)methyl)bicyclo[2.2.1]heptane-1-carboxamido)-3,3-dimethylbutanoyl)-4-hydroxy-N—((R)-1-(4-(4-methylthiazol-5-yl)phenyl)-2-morpholinoethyl)pyrrolidine-2-carboxamide], for which, on SMARCA4 (setting [1]), the “SMARC A4 Hela HiBit Dmax(%)” value is on record as “B (B (70-90% degradation))”. The values for the DC50 on SMARCA4 and on SMARCA2 (setting [6]) were 100 to 500 nM and < 100 nM, respectively. In addition, the “SMARC A2 Hela HiBit Dmax (%)” value at SMARCA2 (setting [5]) is “A (A (>90% degradation))”.
In the case of `Cc1ncsc1-c1ccc([C@@H](C)NC(=O)[C@@H]2C[C@@H](O)CN2C(=O)C(c2cc(N3CCC(CN4CCC(c5ccc6c(c5)C5(CCCCC5)c5nc(=O)c7c(Br)cccc7n5-6)CC4)CC3)no2)C(C)C)cc1` (stereo partly drawn) [Compound A59, (2S,4R)-1-(2-(3-(4-((4-(4′-bromo-5′-oxo-5′H-spiro[cyclohexane-1,7′-indolo[1,2-a]quinazolin]-9′-yl)piperidin-1-yl)methyl)piperidin-1-yl)isoxazol-5-yl)-3-methylbutanoyl)-4-hydroxy-N—((R)-1-(4-(4-methylthiazol-5-yl)phenyl)ethyl)pyrrolidine-2-carboxamide], the DC50 on SMARCA4 (setting [1]) was > 1000 nM; on SMARCA2 (setting [3]) it was < 100 nM. For the same molecule, the Dmax was < 50% at SMARCA4 (Hela SMARCA4-HiBiT cells, 24 hours treatment, read-out: SMARC A4 Hela HiBit Dmax(%)) and 70 to 90% on SMARCA2 (setting [4]).
For `Cc1ncsc1-c1ccc([C@H](COCC(=O)O)NC(=O)[C@@H]2C[C@@H](O)CN2C(=O)[C@@H](n2cc([C@H]3CC[C@H](CN4CCC(c5ccc6c(c5)-n5c(nc(=O)c7c(Cl)cccc75)C65CCCCC5)CC4)CC3)nn2)C(C)(C)C)cc1` [Compound A155, 2-((R)-2-((2S,4R)-1-((S)-2-(4-((1r,4S)-4-((4-(4′-chloro-5′-oxo-5′H-spiro[cyclohexane-1,7′-indolo[1,2-a]quinazolin]-10′-yl)piperidin-1-yl)methyl)cyclohexyl)-1H-1,2,3-triazol-1-yl)-3,3-dimethylbutanoyl)-4-hydroxypyrrolidine-2-carboxamido)-2-(4-(4-methylthiazol-5-yl)phenyl)ethoxy) acetic acid], the DC50 at SMARCA4 (setting [1]) is > 1000 nM; at SMARCA2 (setting [3]) it was 100 to 1000 nM. Besides, the Dmax at SMARCA4 (setting [2]) was < 50%; on SMARCA2 (setting [4]), 70 to 90%.
`Cc1ncsc1-c1ccc([C@H](C)NC(=O)[C@@H]2C[C@@H](O)CN2C(=O)[C@@H](NC(=O)[C@H]2CC[C@H](CN3CCC(c4ccc5c(c4)-n4c(nc(=O)c6c(Cl)cccc64)C54CCCCC4)CC3)CC2)C(C)(C)C)cc1` [Compound A42, (2S,4R)-1-((S)-2-((1r,4S)-4-((4-(4′-chloro-5′-oxo-5′H-spiro[cyclohexane-1,7′-indolo[1,2-a]quinazolin]-10′-yl)piperidin-1-yl)methyl)cyclohexane-1-carboxamido)-3,3-dimethylbutanoyl)-4-hydroxy-N—((S)-1-(4-(4-methylthiazol-5-yl)phenyl)ethyl)pyrrolidine-2-carboxamide]: the “SMARC A4 Hela HiBit DC50(nM)” value on SMARCA4 (setting [1]) is reported as “No Fit”. The Dmax on SMARCA2 (setting [4]) lay in the range of 70 to 90%. Also, the DC50 at SMARCA2 (read-out: SMARC A2 Hela HiBit DC50; Hela SMARCA2-HiBiT cells, 24 hours treatment) is < 100 nM.
With `Cc1ncsc1-c1ccc([C@H](CNC(=O)[C@H]2CC[C@H](CN3CCC(c4ccc5c(c4)-n4c(nc(=O)c6c(Br)cccc64)C54CCCCC4)CC3)CC2)NC(=O)[C@@H]2C[C@@H](O)CN2C(=O)[C@@H](n2cc(C3CC3)nn2)C(C)(C)C)cc1` [Compound A116, (2S,4R)—N—((R)-2-((1r,4R)-4-((4-(4′-bromo-5′-oxo-5′H-spiro[cyclohexane-1,7′-indolo[1,2-a]quinazolin]-10′-yl)piperidin-1-yl)methyl)cyclohexane-1-carboxamido)-1-(4-(4-methylthiazol-5-yl)phenyl)ethyl)-1-((S)-2-(4-cyclopropyl-1H-1,2,3-triazol-1-yl)-3,3-dimethylbutanoyl)-4-hydroxypyrrolidine-2-carboxamide], the DC50 on SMARCA4 (setting [1]) and at SMARCA2 (setting [3]) was > 1000 nM each time. Further, the Dmax on SMARCA4 (setting [2]) and at SMARCA2 (setting [4]) was < 50% each time.
Consider `Cc1ncsc1-c1ccc([C@H](C)NC(=O)[C@@H]2C[C@@H](O)CN2C(=O)[C@@H](n2cc(C3(CCN4CCC(c5ccc6c(c5)-n5c(nc(=O)c7c(Br)cccc75)C65CCCCC5)CC4)CC3)nn2)C(C)(C)C)cc1` [Compound A65, (2S,4R)-1-((S)-2-(4-(1-(2-(4-(4′-bromo-5′-oxo-5′H-spiro[cyclohexane-1,7′-indolo[1,2-a]quinazolin]-10′-yl)piperidin-1-yl)ethyl)cyclopropyl)-1H-1,2,3-triazol-1-yl)-3,3-dimethylbutanoyl)-4-hydroxy-N—((S)-1-(4-(4-methylthiazol-5-yl)phenyl)ethyl)pyrrolidine-2-carboxamide], for which the “SMARC A4 Hela HiBit Dmax(%)” value on SMARCA4 (setting [1]) is given as “A (A (>90% degradation))”. Besides, the DC50 at SMARCA4 and on SMARCA2 (setting [6]) was < 100 nM throughout. In addition, at SMARCA2 (setting [5]), the “SMARC A2 Hela HiBit Dmax (%)” value is reported as “A (A (>90% degradation))”.

What is called DC50 is the concentration at which degradation of the target reaches its halfway point. By Dmax is commonly meant the largest share of the target that was removed.
